According to patent US20200147158A1, “SANGHUANGPORUS SANGHUANG STRAINS AND THEIR PRODUCTS, EXTRACTS AND APPLICATIONS” (FOOD INDUSTRY RESEARCH AND DEVELOPMENT INSTITUTE, priority 2018, published 2020):

Legend:
Type in all cases: cell-based
ER-β = biological target: T1, ER-β (Homo sapiens, UniProt Q92731); assay: Evaluation of SERMs activity: ERβ/pERE-TA-SEAP reporter gene assay in transfected CV-1 cells; details: for ER Subtype Activity ER-β: ratio to untreated cells (Medium only); for ER-β/ER-α: ratio of relative ER-β to ER-α activity
T1 construct: expressed in transfected cells; host or cells: CV-1 (Cercopithecus aethiops kidney cells)
T1 sequence (Q92731 whole entry, species assumed): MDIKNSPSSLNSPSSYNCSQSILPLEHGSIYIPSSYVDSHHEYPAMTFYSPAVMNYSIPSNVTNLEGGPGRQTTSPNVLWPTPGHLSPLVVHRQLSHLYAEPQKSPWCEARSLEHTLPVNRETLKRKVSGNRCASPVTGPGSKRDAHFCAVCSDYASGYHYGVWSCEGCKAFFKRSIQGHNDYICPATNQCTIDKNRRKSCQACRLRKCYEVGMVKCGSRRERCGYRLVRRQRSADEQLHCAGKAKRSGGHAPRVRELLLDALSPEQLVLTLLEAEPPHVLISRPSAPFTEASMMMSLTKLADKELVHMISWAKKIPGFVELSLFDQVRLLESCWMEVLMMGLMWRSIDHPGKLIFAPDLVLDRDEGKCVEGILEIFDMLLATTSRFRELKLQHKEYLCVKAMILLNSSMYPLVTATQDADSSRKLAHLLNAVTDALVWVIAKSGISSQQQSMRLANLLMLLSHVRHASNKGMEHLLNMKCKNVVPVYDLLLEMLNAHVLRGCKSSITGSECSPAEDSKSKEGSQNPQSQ
Procedure: (§1) CV-1 cells (Cercopithecus aethiops kidney cells) were grown at a confluence of 70-80% and were harvested in a cell suspension at a concentration of 5×10^4 cell/ml. The cell suspensions were added to each well (100 μl/well) of 96-well plate and the 96-well plate was incubated at 37° C., 5% CO2 incubator overnight.
(§2) 500 μl jetPRIME® buffer. 5 μg pERE-TA-SEAP and 5 μg ERα DNA plasmid (or ERβ DNA plasmid) were mixed in 1.5 ml eppendorf, then 20 μl jetPRIME® Transfection Reagent and 1.5 ml medium were added. The DNA mixtures were added to each well of 96-well plate (20 μl) and the 96-well plate was incubated at 37° C., 5% CO2 incubator for 4 hours.
(§3) The supernatant solutions were removed from each well of 96-well plate, then 90 μl charcoal-treated. FBS medium without phenol red were added to each well of 96-well plate. The samples to be tested were added to the wells of 96-well plate, which was incubated in 37° C., 5% CO2 incubator for 48 to 72 hours. The cells were harvested for the subsequent reporter gene assay and cell toxicity assay.
25 μl cell culture supernatants were collected from the 96-well plate and, then added to a new luminescence microplate, which was incubated at 65° C. water bath for 30 minutes to remove the activity endogenous alkaline phosphatase, and was placed on ice for 5 minutes and was centrifuged (1,000 rpm) for one minute. 25 μl PhosphaLight™ assay buffers were added at room temperature for 5 minutes and 25 μl CSPD (Disodium 3-(4-methoxyspiro {1,2-dioxetane-3,2′-(5′-chloro)tricyclo [3.3 1.13,7]decan}-4-yl phenyl phosphate)-containing Phospha-Light™ reaction buffers were added at room temperature for 20 minutes. The luminescence microplate was placed in Victor™ Light 1420 Luminescence Counter and the SEAP enzyme activities were measured.

Estrogen Receptor (ER) = biological target: T2, Estrogen Receptor (ER) (Homo sapiens, UniProt P03372); assay: ER total activity assay (pERE-TA-SEAP reporter in MCF-7 cells); details: for ER activity (FIG. 1, in words): 2 μg/ml, 5 μg/ml and 10 μg/ml; for ER activity compared with 17-β Estradiol (positive control), FIG. 1, in words: MCF-7 cells
T2 construct: endogenous in cells; host or cells: MCF-7
T2 sequence (P03372 1-595): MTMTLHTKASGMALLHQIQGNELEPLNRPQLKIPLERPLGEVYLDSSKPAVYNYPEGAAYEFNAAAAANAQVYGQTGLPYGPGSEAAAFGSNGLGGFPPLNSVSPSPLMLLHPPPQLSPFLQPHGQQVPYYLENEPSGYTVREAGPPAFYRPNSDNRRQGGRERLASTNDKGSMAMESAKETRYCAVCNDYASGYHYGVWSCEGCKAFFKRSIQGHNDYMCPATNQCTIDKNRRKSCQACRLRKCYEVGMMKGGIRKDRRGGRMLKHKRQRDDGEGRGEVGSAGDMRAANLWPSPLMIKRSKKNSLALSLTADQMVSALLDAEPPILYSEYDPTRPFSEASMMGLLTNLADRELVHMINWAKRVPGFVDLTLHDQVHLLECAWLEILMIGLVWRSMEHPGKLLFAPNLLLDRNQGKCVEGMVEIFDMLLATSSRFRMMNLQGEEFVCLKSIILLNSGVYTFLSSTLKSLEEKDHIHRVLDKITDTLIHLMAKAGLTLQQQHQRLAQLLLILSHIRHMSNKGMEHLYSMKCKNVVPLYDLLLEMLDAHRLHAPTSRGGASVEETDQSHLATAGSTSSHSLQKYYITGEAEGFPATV
Procedure: ER is a ligand-activated enhancer protein that is a member of the steroid/nuclear receptor superfamily. […] Secreted alkaline phosphatase (SEAP) is a reporter widely used to study promoter activity or gene expression.
The 1 ml 0.05% trypsin-EDTA solution was added to 80% confluence (on Day 5, if cells were in log phase) of MCF-7 cells in a T75 flask at 37° C. for 5 minutes. After the cells were detached, 5 ml charcoal-treated FBS-containing medium were added to suspend the cells. The charcoal-treated FBS-containing PBS medium were added 2 ml cell suspensions to the final volume of 10 ml of a mixture. The mixture was dispensed into each well (100 μl/well, 2×10^4 cells/well) of a 96-well plate by 8-channel pipette, and the 96-well plate was placed at 37° C. and 5% CO2 overnight to obtain about 70% confluence.
To transfect cells to express the ERE, a transfection mixture was prepared. TransIT®-LT1 Transfection Reagent is a broad spectrum reagent that provides high efficiency plasmid DNA delivery in many mammalian cell types including primary cells. Specifically, 1 ml Opti-MEM®, 14 μl TransIT®-LT1 Transfection Reagent and 5 μg pERE-TA-SEAP were added into a 1.5 ml Eppendorf and let the transfection mixture stand for 15-30 minutes.
Transfection mixture containing TransIT-DNA was dispensed into each well (10 μl/well) of a 96-well plate, and the 96-well plate was placed at 37° C. and 5% CO2 for 24 hours. The supernatants were removed from the 96-well plate using 8-channel pipette.
(§4) 25 μl cell culture supernatants were collected from the 96-well plate and, then added to a new luminescence microplate, which was incubated at 65° C. water bath for 30 minutes to remove the activity endogenous alkaline phosphatase, and was placed on ice for 5 minutes and was centrifuged (1,000 rpm) for one minute.

ER-α = biological target: T3, ER-α (Homo sapiens, UniProt P03372); assay: Evaluation of SERMs activity: ERα/pERE-TA-SEAP reporter gene assay in transfected CV-1 cells; details: 25 μg/mL, ratio to untreated cells (Medium only)
T3 construct: expressed in transfected cells; host or cells: CV-1 (Cercopithecus aethiops kidney cells)
T3 sequence (P03372 1-595): T2 sequence (P03372 1-595)
Procedure: as §1, §2, §3, §4

Row | SMILES | ER Subtype Activity ER-β (ER-β; 200 nM) | ER activity (FIG. 1, in words) (Estrogen Receptor (ER)) | ER activity compared with 17-β Estradiol (positive control), FIG. 1, in words (Estrogen Receptor (ER)) | ER Subtype Activity ER-α (ER-α) | ER-β versus ER-α activity (in words) (ER-β) | ER-β/ER-α (ER-β; 25 μg/mL) | ER Subtype Activity ER-β (ER-β; 25 μg/mL)
1 | C[C@]12CC[C@@H]3c4ccc(O)cc4CC[C@H]3[C@@H]1CC[C@@H]2O [17-β Estradiol (E2), 17-β Estradiol, reference compound] | 3.70 ± 0.45 | – | – | – | – | – | –
2 | C=C1CCCC(C)(C)C1CC/C(C)=C/C(=O)O (stereo not shown) [Compound 1, (E)-5-(2,2-dimethyl-6-methylenecyclohexyl)-3-methylpent-2-enoic acid] | – | significant ER activity | superior ER activity over 17-β Estradiol | 1.21 ± 0.53 | superior ER-β activity over ER-α activity | 3.1 | 3.80 ± 0.11
3 | C=C1CCCC(C)(C)[C@@H]1/C=C/C(C)=C/C(=O)O [Compound 2, (+)-(2E,-4E)-5-((S)-2,2-dimethyl-6-methylenecyclohexyl)-3-methylpenta-2,4-dienoic acid] | – | significant ER activity | superior ER activity over 17-β Estradiol | 1.16 ± 0.16 | superior ER-β activity over ER-α activity | 2.2 | 2.53 ± 0.77
